For assay [1], the target named is T1, Bile salt export pump (Rattus norvegicus, UniProt O70127).
T1 sequence (O70127 whole entry): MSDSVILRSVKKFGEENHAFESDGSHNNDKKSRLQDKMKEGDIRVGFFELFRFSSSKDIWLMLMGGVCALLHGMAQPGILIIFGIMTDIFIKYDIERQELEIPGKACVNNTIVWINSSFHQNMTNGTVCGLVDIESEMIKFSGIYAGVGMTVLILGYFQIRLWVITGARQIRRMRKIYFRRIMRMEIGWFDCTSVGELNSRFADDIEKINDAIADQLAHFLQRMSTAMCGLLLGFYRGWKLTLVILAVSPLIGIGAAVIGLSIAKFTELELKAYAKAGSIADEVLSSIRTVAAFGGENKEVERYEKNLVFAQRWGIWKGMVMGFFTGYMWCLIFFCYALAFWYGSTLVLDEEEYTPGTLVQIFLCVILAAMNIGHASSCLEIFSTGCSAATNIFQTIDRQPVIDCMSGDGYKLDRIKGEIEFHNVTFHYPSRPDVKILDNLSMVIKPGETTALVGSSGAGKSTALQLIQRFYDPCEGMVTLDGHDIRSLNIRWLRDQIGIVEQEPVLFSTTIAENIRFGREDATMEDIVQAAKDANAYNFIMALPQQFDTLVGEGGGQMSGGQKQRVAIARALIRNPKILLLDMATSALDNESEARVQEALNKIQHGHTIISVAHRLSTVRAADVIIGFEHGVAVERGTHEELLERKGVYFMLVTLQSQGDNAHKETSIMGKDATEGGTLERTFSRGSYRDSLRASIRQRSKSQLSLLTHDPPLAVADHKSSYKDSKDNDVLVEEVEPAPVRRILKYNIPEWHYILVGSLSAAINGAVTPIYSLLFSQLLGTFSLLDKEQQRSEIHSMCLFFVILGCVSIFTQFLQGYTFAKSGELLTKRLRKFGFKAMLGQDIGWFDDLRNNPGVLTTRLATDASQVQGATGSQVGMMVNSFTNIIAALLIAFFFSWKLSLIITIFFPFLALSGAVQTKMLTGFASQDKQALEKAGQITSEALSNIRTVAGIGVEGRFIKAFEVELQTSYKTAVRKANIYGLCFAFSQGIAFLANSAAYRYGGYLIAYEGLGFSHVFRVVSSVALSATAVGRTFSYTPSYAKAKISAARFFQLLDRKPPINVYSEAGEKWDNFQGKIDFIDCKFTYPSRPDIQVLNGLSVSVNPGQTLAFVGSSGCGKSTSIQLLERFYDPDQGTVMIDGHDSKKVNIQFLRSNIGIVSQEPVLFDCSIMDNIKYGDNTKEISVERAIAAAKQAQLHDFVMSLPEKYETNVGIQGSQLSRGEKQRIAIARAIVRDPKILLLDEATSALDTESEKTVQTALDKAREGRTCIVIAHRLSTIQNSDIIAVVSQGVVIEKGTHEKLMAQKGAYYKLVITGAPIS
The assay can be described thus: TP_TRANSPORTER: inhibition of Taurocholate uptake (Taurocholate: 1 uM) in liver canalicular membrane vesicle from female rat. Type of assay: functional, cell membranes.

For assay [2], the target named is T1, Bile salt export pump. The assay is described as follows: TP_TRANSPORTER: inhibition of Taurocholate uptake (Taurocholate: 1 uM) in liver canalicular membrane vesicle from male rat. It counts as functional, cell membranes.

pIC50: −log10 of the molar value. Structures can show the parent of a compound that is named as a salt.

By pIC50 is commonly meant the IC50 on a negative log10 scale, so that one unit is a factor of ten. `Cc1c(C)c2c(c(C)c1O)CCC(C)(COc1ccc(CC3SC(=O)NC3=O)cc1)O2` (stereo not given) [TROGLITAZONE]: the pIC50 on Bile salt export pump [1] is 5.41.
With `Cc1c(C)c2c(c(C)c1OS(=O)(=O)O)CCC(C)(COc1ccc(CC3SC(=O)NC3=O)cc1)O2` (stereo not given) [TROGLITAZONE SULFATE], the negative logarithm of the IC50 (pIC50) was 6.40 at Bile salt export pump [2] and 6.22 at Bile salt export pump [1].
As for `COc1ccc(Cl)cc1C(=O)NCCc1ccc(S(=O)(=O)NC(=O)NC2CCCCC2)cc1` [GLYBURIDE], the negative-log IC50 (pIC50) on Bile salt export pump [2] is 5.07; on Bile salt export pump [1], 4.80.

For the origin of these results see ChEMBL document CHEMBL2073788, “Troglitazone-induced intrahepatic cholestasis by an interference with the hepatobiliary export of bile acids in male and female rats. Correlation with the gender difference in troglitazone sulfate formation and the inhibition of the canalicular bile salt export pump (Bsep) by troglitazone and …” (Toxicology, 2001).
